Patent US9951058B2, “Compound, pharmaceutically acceptable salt or optical isomer thereof, method for preparing the same, and pharmaceutical composition for prevention or treatment of viral diseases containing same as active ingredient” (Korea Research Institute of Chemical Technology, priority 2012, dated 2018)
Values after ≈ are worked out from the molar mass of the structure shown.

Experiments:
[1] = tested on: coxsackievirus B3 (Cox B3); assay: Multicycle cytopathic effect (CPE) reduction assay; format: cell-based; details: Enterovirus B, B3, 72 h, read-out: EC50 CoxB3
[2] = tested on: coxsackievirus B1 (Cox B1); assay: Multicycle cytopathic effect (CPE) reduction assay; format: cell-based; details: Enterovirus B, B1, 72 h, read-out: EC50 CoxB1
[3] = tested on: poliovirus 3 (PV3); assay: microbe, parasite or virus in culture; format: cell-based; details: Enterovirus C, 72 h, read-out: EC50 PV3
[4] = tested on: HRV 14; assay: Cytopathic effect (CPE) inhibition assay; format: cell-based, human rhinovirus; details: Human rhinovirus sp., HeLa, 72 h, host cell HeLa, 3 days, MEM/2% FBS, MTT assay; read-out: EC50 HRV 14
[5] = Cytotoxicity (CC50) in multicycle CPE reduction assay, MTS; details: human
[6] = tested on: HRV 71; assay: Cytopathic effect (CPE) inhibition assay; format: cell-based, human rhinovirus; details: Human rhinovirus sp., 72 h; host cell HeLa, 3 days, MEM/2% FBS, MTT assay; read-out: EC50 HRV 71
[7] = in vitro; details: human
[8] = tested on: HRV 21; assay: Cytopathic effect (CPE) inhibition assay; format: cell-based, human rhinovirus; details: Human rhinovirus sp., 72 h; host cell HeLa, 3 days, MEM/2% FBS, MTT assay; read-out: EC50 HRV 21

Work on `CC(C)c1ccc2c(c1)OC1(O)c3ccccc3C(=O)C21NC(=O)C(=O)Cc1ccc(O)cc1` (stereo not drawn) [Example 9, N-(4b-hydroxy-7-isopropyl-10-oxo-9b, 10-dihydro-4bH-indeno[1,2-b]benzofuran-9b-yl)-3-(4-hydroxyphenyl)-2-oxo propanamide] yielded an EC50 [1] of 0.015 µg/mL (≈ 0.0328 µM), an EC50 [2] of 0.013 µg/mL (≈ 0.0284 µM) and an EC50 [3] of under 1 µg/mL. For the same molecule, the EC50 [4] was over 3.76 µg/mL, the CC50 at 3 days [5] was 9.21 µg/mL (≈ 20.1 µM) and the EC50 [6] was over 3.76 µg/mL. It also gave a CC50 [7] of 3.76 µg/mL (≈ 8.22 µM) and an EC50 [8] of over 3.76 µg/mL.
`Cc1cccc(C)c1NC(=O)C(=O)NC12C(=O)c3cccc([N+](=O)[O-])c3C1(O)Oc1cc(C(C)C)ccc12` (stereo not drawn) [Example 26, N1-(2,6-dimethylphenyl)-N2-(4b-hydroxy-7-isopropyl-4-nitro-10-oxo-4b, 10-dihydro-9bH-indeno[1,2-b]benzofuran-9b-yl)oxal amide] gave an EC50 [1] of under 10 µg/mL, an EC50 [2] of under 10 µg/mL and an EC50 [3] of over 10 µg/mL. The EC50 [4] was under 10 µg/mL, the CC50 at 3 days [5] was over 10 µg/mL and the EC50 [6] was over 10 µg/mL. The CC50 [7] was over 10 µg/mL and the EC50 [8] was over 10 µg/mL.
Molecule `CCNC(=O)OC12C(=O)c3ccccc3C1(OC)Oc1cc(C(C)C)ccc12` (stereo not drawn) [Example 62, 7-isopropyl-4b-methoxy-10-oxo-4b, 10-dihydro-9bH-indeno[1,2-b]benzofuran-9b-yl ethyl carbamate] has an EC50 [1] of under 10 µg/mL, an EC50 [2] of under 10 µg/mL and an EC50 [3] of over 10 µg/mL. It also gave an EC50 [4] of over 10 µg/mL, a CC50 at 3 days [5] of over 10 µg/mL and an EC50 [6] of over 10 µg/mL. It also gave a CC50 [7] of over 10 µg/mL and an EC50 [8] of over 10 µg/mL.
For `CC(C)c1ccc2c(c1)OC1(O)c3ccccc3C(=O)C21NC(=O)C(=O)N1CCN(C)CC1` (stereo not drawn) [Example 48, N-(4b-hydroxy-7-isopropyl-10-oxo-4b, 10-dihydro-9bH-indeno[1,2-b]benzofuran-9b-yl)-2-(4-methylpiperazin-1-yl)-2-oxo acetamide], the EC50 [1] was under 0.1 µg/mL, the EC50 [2] was under 0.1 µg/mL and the EC50 [3] was under 10 µg/mL. It also gave an EC50 [4] of under 1 µg/mL, a CC50 at 3 days [5] of over 10 µg/mL and an EC50 [6] of over 10 µg/mL. The CC50 [7] was over 10 µg/mL and the EC50 [8] was over 10 µg/mL.
`CC(C)c1ccc2c(c1)OC1(O)c3ccccc3C(=O)C21NC(N)=S` (stereo not drawn) [Example 61, 1-(4b-hydroxy-7-isopropyl-10-oxo-4b, 10-dihydro-9bH-indeno[1,2-b]benzofuran-9b-yl)thiourea] showed an EC50 [1] of under 1 µg/mL, an EC50 [2] of under 0.1 µg/mL and an EC50 [3] of over 10 µg/mL. It also gave an EC50 [4] of under 10 µg/mL, a CC50 at 3 days [5] of over 10 µg/mL and an EC50 [6] of over 10 µg/mL. It also gave a CC50 [7] of over 10 µg/mL and an EC50 [8] of over 10 µg/mL.
Molecule `CC(C)c1ccc2c(c1)OC1(O)c3cccc(N)c3C(=O)C21NC(=O)C(=O)c1c[nH]c2ccccc12` (stereo not drawn) [Example 10, N-(1-amino-4b-hydroxy-7-isopropyl-10-oxo-9b, 10-dihydro-4bH-indeno[1,2-b]benzofuran-9b-yl)-2-(1H-indo1-3-yl)-2-oxo acetamide] has an EC50 [1] of 0.014 µg/mL (≈ 0.0291 µM), an EC50 [2] of under 0.01 µg/mL and an EC50 [3] of under 0.1 µg/mL. The EC50 [4] was under 0.1 µg/mL, the CC50 at 3 days [5] was 8.33 µg/mL (≈ 17.3 µM) and the EC50 [6] was over 4.89 µg/mL. It also gave a CC50 [7] of 4.89 µg/mL (≈ 10.2 µM) and an EC50 [8] of over 4.89 µg/mL.
`CC(C)c1ccc2c(c1)OC1(O)c3ccccc3C(=O)C21NC(=O)CN` (stereo not drawn) [Example 64, 2-amino-N-(4b-hydroxy-7-isopropyl-10-oxo-4b, 10-dihydro-9bH-indeno[1,2-b]benzofuran-9b-yl)acetamide] showed an EC50 [1] of under 0.1 µg/mL, an EC50 [2] of under 0.1 µg/mL and an EC50 [3] of over 10 µg/mL. For the same molecule, the EC50 [4] was under 10 µg/mL, the CC50 at 3 days [5] was over 10 µg/mL and the EC50 [6] was over 10 µg/mL. The CC50 [7] was over 10 µg/mL and the EC50 [8] was over 10 µg/mL.
In the case of `CC(C)c1ccc2c(c1)OC1(O)c3ccccc3C(=O)C21NC(=O)C(=O)c1c[nH]c2ccccc12` (stereo not drawn) [Example 1, N-(4b-hydroxy-7-isopropyl-10-oxo-9b, 10-dihydro-4bH-benzo[d]indeno[1,2-b]furan-9b-yl)-2-(1H-indol-3-yl)-2-oxo acetamide], the EC50 [1] is reported as 0.061 µg/mL (≈ 0.131 µM), the EC50 [2] is reported as 0.017 µg/mL (≈ 0.0364 µM) and the EC50 [3] is reported as 1.1 µg/mL (≈ 2.36 µM). For the same molecule, the EC50 [4] was under 1 µg/mL, the CC50 at 3 days [5] was 8.57 µg/mL (≈ 18.4 µM) and the EC50 [6] was over 7.91 µg/mL. The CC50 [7] was 7.91 µg/mL (≈ 17 µM) and the EC50 [8] was over 7.91 µg/mL.
`Cc1cc2c(cc1C)C1(NC(=O)C(=O)c3c[nH]c4ccccc34)C(=O)c3ccccc3C1(O)O2` (stereo not drawn) [Example 13, N-(4b-hydroxy-7,8-dimethyl-10-oxo-9b, 10-dihydro-9bH-indeno[1,2-b]benzofuran-9b-yl)-(1H-indo1-3-yl)-2-oxo acetamide] gave an EC50 [1] of 0.13 µg/mL (≈ 0.287 µM), an EC50 [2] of 0.061 µg/mL (≈ 0.135 µM) and an EC50 [3] of 1.98 µg/mL (≈ 4.38 µM). It also gave an EC50 [4] of 1.85 µg/mL (≈ 4.09 µM), a CC50 at 3 days [5] of 8.31 µg/mL (≈ 18.4 µM) and an EC50 [6] of over 8.41 µg/mL. The CC50 [7] was 8.41 µg/mL (≈ 18.6 µM) and the EC50 [8] was over 8.41 µg/mL.
